“Also recorded” adds a separate entry of the source.

Test [1] concerns MM.1S-Cas9+ cells. Briefly: Genome-scale CRISPR/Cas9 gene editing (LOF) resistance screens. The format is cell-based, human. The following applies: for sgRNA enrichment in resistant cells, long-term screen: long-term treatment, NGS of sgRNAs; for sgRNA enrichment, extended degronimid treatment: Thal-SNS-032-resistant MM.1S cells, additional 2 weeks. On the procedure: MM.1S cells transduced with lentiviral construct for SpCas9 were kindly provided from Quinlan Sievers (Ebert Lab, BWH/DFCI). MM.1S cells were also transduced with lentiviral construct for dCas9-VP64 (purchased from Addgene).
ii. Lentiviral transductions with sgRNA libraries: For the screen with the GECKOv2 sgRNA library, tumor cell transductions were performed in batches of 8×10^7 cells per sub-library for each replicate. Cells were incubated for 16 hrs in cell medium containing polybrene (2 μg/mL; Santa Cruz Biotechnology), 10 mM HEPES (pH 7.4) (Sigma-Aldrich) and viral prep (4 mL) diluted to achieve an MOI of 0.4. After the end of the incubation with the viral preps, cells were washed and incubated for an additional day. Transduced cells were cultured at an initial density of 1×10^6 cells/mL and were treated with puromycin (1 μg/mL) for up to 14 days immediately after transduction. After puromycin selection, MM.1S-Cas9^+ cells transduced with each GeCKOv2 sublibrary were plated at 60×10^6 cells per flask (T175, 100 mL) to enable coverage of ˜1000× and were sub-cultured at four to five-day intervals to prevent confluence. At each passage, cells were harvested, washed with PBS (Corning, N.Y.), pelleted (5000 rpm, 5 min, 4° C.) and frozen as cell pellets (−80° C.) for next generation sequencing, and also replated at 60×10^6 cells to maintain 1000× coverage.
For the genome-scale screens with the Brunello sgRNA library, tumor cell transductions were performed in batches of 5×10^7 cells per library for six replicates. Cells were incubated (18 h) in cell medium containing polybrene (5 μg/mL; Santa Cruz Biotechnology), 10 mM HEPES (pH 7.4) (Sigma-Aldrich) and viral prep (30 mL) diluted 1:1. Transduced cells were cultured at an initial density of 1×10^6 cells/mL and were treated with puromycin (1 μg/mL) for up to 5 days additional two days from transduction. After stable transduction, pooled MM.1S cells were plated at 40×10^6 cells per flask (T175, 100 mL) to enable coverage of 500× and were sub-cultured at three- to four day intervals to prevent confluence. At each passage, cells were harvested, washed with PBS (Corning), pelleted (5000 rpm, 5 min, 4° C.) and frozen as cell pellets (−80° C.) for next generation sequencing, and also replated at 40×10^6 cells (˜500× coverage).
iii. […] Following treatments, all cells were serially cultured without drug and allowed to regrow for as long as required to enable reseeding (60×10^6 cells per flask, 100 mL) and retreatment with individual drugs while maintaining ˜1000× coverage throughout. Concomitant with retreatment, remaining cells were frozen (−80° C.; 20% FBS/DMSO) for later analysis or assessed for drug resistance/sensitivity using CTG assays. Between treatments, and in order to maintain the health of cultures, dead cells were periodically removed using Ficoll centrifugation (1,500 rpm for 10-20 min). For all CRISPR drug treatment experiments, aliquots of MM.1S-Cas9+ cells transduced with the GeCKO(Sanjana et al., 2014; Shalem et al., 2014) or Brunello (Doench et al., 2016) sgRNA libraries were frozen immediately prior to experimentation to determine the baseline distribution of sgRNAs in the cell population.
For “long-term” treatment screens with Thal-SNS-032-, ARV-771- and MZ-1-resistant cells, we continuously treated MM.1S-Cas9+ cells (40×10^6, —500× coverage) transduced with the Brunello sgRNA library (4 weeks post-puromycin selection) with either each compound's (IC20) or vehicle control. Cells were serially passaged every 3-4 days to prevent confluence, each time replating at ˜500× coverage (100 mL) at the same time replenishing each compound or vehicle. Drug treatments were paused if cell numbers fell below 10×10^6 per flask, allowing cells to recover and regrow, and treatments were resumed at a lower concentration when cell numbers reached 40×10^6. At each passage, cells were assayed for drug sensitivity/resistance using CTG. […]

For test [2], the system named is MM.1S Cas9+ cells. Briefly: Dose-response assay of cells with individual sgRNA knock-outs, CTG. The format is cell-based, human. As for the experimental part:
Non-targeting control sgRNAs and COPS7B sgRNAs were from GeCKOv2. Four sgRNAs were generated per each gene, except from COPS7B, for which 6 sgRNAs were available (Table S2). All sgRNAs were synthesized by CustomArray Inc (Bothell, Wash.). Cloning was performed according to the protocol published by Zhang et al. (media.addgene.org/cms/filer_public/4f/ab/4fabc269-56e2-4ba5-92bd-09dc89c1e862/zhang_lenticrisprv2_and_lentiguide_oligo_cloning_protocol_1.pdf) using a pHKO9 vector. Briefly, to clone the sgRNA guide sequence, plasmids were digested with BsmBI (New England Biolabs, Ipswich, Mass.) at 55° C. for 1 hour. Oligonucleotides for each sgRNA guide sequence were annealed and phosphorylated using T4 Ligation Buffer and T4 polynucleotide kinase (New England Biolabs) at 37° C. for 30 minutes and then annealed by heating to 95° C. for 5 minutes and cooling to 25° C. at 1.5° C./minute. Using T4 ligation buffer and T4 ligase (New England Biolabs), annealed oligos were ligated into gel purified vectors (Qiagen) at 65° C. for 10 minutes. 2.5 ug of the ligation product were transformed in 30 uL E. coli electrocompetent cells (Lucigen E.cloni 10 G ELITE PLUS, Invitrogen). Subsequently, 500 uL of transformed cells were plated on LB Agar-AmpR (ThermoFisher Scientific) and incubated overnight at 37° C. Three colonies per plate were then picked and inoculated in a mini-prep culture (Qiagen). The product was then digested with BsmBI and XhoI (New England Biolabs) at 37° C. for 1 h and compared to the uncut control on 1% agarose gel. One out of three colonies (10 uL) was then precultured in 3 mL LB Broth-AmpR and shaken at 37° C. for 6 h. Afterwards it was transferred to a 250 mL LB Broth-AmpR flask and incubated overnight at 37° C. Each culture was then inoculated into a maxiprep culture (Qiagen).
Also, CRBN, VHL, TCEBJ, TCEB2, UBE2R2 and FBXW2 sgRNA are selected from Brunello library and cloned using pLVX-hyg-sgRNA1 Vector system (Takara Bio USA, CA) according to the manufacturer's manual. b(takarabio.com/assets/documents/User %20Manual/Lenti-X_CRISPR-Cas9_System_User_Manual_121316.pdf)
ii. Lentiviral transductions with constructs for individual sgRNAs: 500×10^3 to 1×10^6 MM.1S Cas9 cells were plated in 50 uL of complete RPMI1640 medium per well in a 24-well plate, and additional 100 uL of complete RPMI1640 medium were added to cover the well completely. Cells were incubated in cell medium containing polybrene (5 to 8 μg/mL; Santa Cruz Biotechnology), and viral prep. 24 hours after addition of viral preps, media were changed and, after another 48 h, puromycin selection (1 to 2 ug/ml per well) was started. After 7 days of puromycin selection, transduced MM.1S Cas9+ cells were collected and expanded in T75 flasks.
iii. […] In the case of Thal-SNS-032 or ARV771, cells are plated 384-well plate and treated each concentration described at figure and viability assays were performed at 72 hrs.

Regarding `Cc1ncsc1-c1ccc([C@H](C)NC(=O)[C@@H]2C[C@@H](O)CN2C(=O)[C@@H](NC(=O)COCCCOCCNC(=O)C[C@@H]2N=C(c3ccc(Cl)cc3)c3c(sc(C)c3C)-n3c(C)nnc32)C(C)(C)C)cc1` [ARV-771], the “sgRNA enrichment in resistant cells, long-term screen” value (shortened to “sgRNA enrichment in resistant cells”) in test [1] is on record as “enrichment of sgRNAs for CUL2, VHL itself”. Further, in test [2] (MM.1S cells), the “activity against cells with sgRNAs against CRBN” value was “no significant changes in ARV771 activity”. For the same compound, the “response of cells with sgRNAs against COPS7B or COPS8” value in test [2] (compared to parental MM.1S cells) is “decreased response”.

On to `Cc1sc2c(c1C)C(c1ccc(Cl)cc1)=N[C@@H](CC(=O)NCCCCCCCCNC(=O)COc1cccc3c1C(=O)N(C1CCC(=O)NC1=O)C3=O)c1nnc(C)n1-2` (stereo partly drawn) [dBET6], for which, in test [1], the “sgRNA enrichment, extended degronimid treatment” value is “CRBN is the only gene which exhibits enrichment of its sgRNAs; also recorded: further enrichment of MM cells containing sgRNA against CRBN” and the “sgRNA enrichment in resistant cells” value is reported as “significant enrichment of sgRNAs targeting CRBN itself, as well as other components or regulators of the cullin-RING ligase (CRL) complex”. Further, the “response to dBET6 after individual sgRNAs” value in test [2] (sgRNAs for COPS7B, COPS8 or CRBN) is reported as “decreases the response of MM.1S cells to dBET6”.

On to `CC(C)(C)c1cnc(CSc2cnc(NC(=O)C3CCN(CC(=O)NCCOCCOCCOCCNc4cccc5c4C(=O)N(C4CCC(=O)NC4=O)C5=O)CC3)s2)o1` (stereo not drawn) [Thal-SNS-032], for which, in test [1], the “sgRNA enrichment, extended degronimid treatment” value is on record as “CRBN is the only gene which exhibits enrichment of its sgRNAs; also recorded: further enrichment of MM cells containing sgRNA against CRBN”; the “sgRNA enrichment in resistant cells” value is “pronounced enrichment of sgRNAs for CRBN itself, and COP9 signalosome complex genes”. Besides, the “Thal-SNS-032 responsiveness after individual sgRNAs” value in test [2] (sgRNAs for COPS7B, COPS2, DDB1 or COPS8) is recorded as “decrease the Thal-SNS-032 responsiveness”.

The values above are taken from patent publication US20220288051A1, “METHODS FOR TREATING CANCER USING SERIAL ADMINISTRATION OF E3 UBIQUITIN LIGASE DEGRADERS” (Dana-Farber Cancer Institute, Inc., priority 2019, published 2022).
